Laboratory results reported in PubChem BioAssay (NCI).
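1) Cells in 96-well plates. 2) Compound, 48 h, 5 concentrations. 3) Linear interpolation between surrounding doses. 4) Unreached endpoint = highest concentration. Abbreviation: GI50, concentration required for 50% inhibition of growth. At the TGI there is no net growth.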

Experiments:
Experiment in all cases: inhibition of tumour cell growth, NCI panel, 48 h
HT29 colon = system: HT29 colon
HS 578T breast = system: HS 578T breast
RPMI-8226 leukemia = system: RPMI-8226 leukemia
IGROV1 ovarian = system: IGROV1 ovarian
SN12C renal = system: SN12C renal
MDA-MB-231 breast = system: MDA-MB-231 breast
PC-3 prostate = system: PC-3 prostate
TK-10 renal = system: TK-10 renal
A498 renal = system: A498 renal
RXF 393 renal = system: RXF 393 renal

SMILES | TGI (HT29 colon) [µM] | TGI (HS 578T breast) [µM] | TGI (RPMI-8226 leukemia) [µM] | TGI (IGROV1 ovarian) [µM] | TGI (SN12C renal) [µM] | TGI (MDA-MB-231 breast) [µM] | TGI (PC-3 prostate) [µM] | TGI (TK-10 renal) [µM] | TGI (A498 renal) [µM] | GI50 (HS 578T breast) [µM] | GI50 (RPMI-8226 leukemia) [µM] | GI50 (IGROV1 ovarian) [µM] | GI50 (SN12C renal) [µM] | GI50 (MDA-MB-231 breast) [µM] | GI50 (PC-3 prostate) [µM] | GI50 (TK-10 renal) [µM] | GI50 (A498 renal) [µM] | TGI (RXF 393 renal) [µM] | GI50 (HT29 colon) [µM]
CC(=O)O[C@@H]1C[C@@]2(C)[C@@H]3CC=C4[C@@H](C[C@H](O)C(=O)C4(C)C)[C@]3(C)C(=O)C[C@]2(C)[C@H]1[C@@](C)(O)C(=O)/C=C/C(C)(C)OC(C)=O | > 100 | > 100 | > 32.2 | 10.2 | > 44.8 | > 21.8 | > 47 | > 37.8 | 0.0591 |  |  |  |  |  |  |  |  |  | 
C[CH2][Hg][S]c1ccccc1C(=O)O |  | > 100 | 4.24 | 4.42 | 2.61 | 2.58 | 17.7 | 2.73 | 4.04 | 2.08 | 1.28 | 1.37 | 1.31 | 1.26 | 3.88 | 1.42 | 1.64 |  | 
O=C(O)c1cc(CCc2cc(O)ccc2O)ccc1O | > 100 | > 100 | > 100 | > 100 | > 100 |  | > 100 | > 100 | > 100 |  |  |  |  |  |  |  |  | > 100 | 
C=C1[C@@H](O)O[C@H]2[C@H]1C[C@H](OC(C)=O)[C@]13C(=O)O[C@H]4C[C@](C)(O)[C@H]([C@H]41)C31C=C(C)[C@]2(O)O1 | > 100 |  | > 100 | 71.4 | 95.2 | > 100 | > 100 |  |  |  | 24.2 | 18.8 | 26.6 | 34.9 | 53.3 |  |  |  | 75.4
C1CSCCSCCCSCCSCCCSCCSCCCSCCSC1 | > 100 | > 100 | > 100 | > 100 | > 100 |  | > 100 | > 100 | > 100 |  |  |  |  |  |  |  |  | > 100 | 
CC(C)C[C@H](NC(=O)CCn1ccc2ccccc2c1=O)B(O)O | 48.7 | 48.7 | 7.07 | > 100 | 55.4 | 59.3 | > 100 | 9.8 | 4.79 | 3.63 | 1.06 | 12.3 | 11.2 | 9.45 | 5.77 | 2.93 | 1.22 |  | 3.68
CC1=NN(c2ccccc2)C(=O)/C1=C\c1ccc([N+](=O)[O-])cc1 | 97 |  | 57.2 | 83.3 | > 100 |  |  | > 100 | 56.2 |  |  |  |  |  |  |  |  | 41.4 | 
